Laboratory results taken from ChEMBL document CHEMBL3994647, “Synthesis and in vitro cytotoxic evaluation of new 1H-benzo[d]imidazole derivatives of dehydroabietic acid” (Bioorg Med Chem Lett, 2017).
pIC50: −log10 of the molar value.

Key:
SMMC-7721 = test: Cytotoxicity against human SMMC7721 cells assessed as reduction in cell viability after 48 hrs by MTT assay; format: functional, cell-based; details: SMMC-7721, 48 h
HepG2 = test: Cytotoxicity against human HepG2 cells assessed as reduction in cell viability after 48 hrs by MTT assay; format: functional, cell-based; details: HepG2, 48 h
L02 = test: Cytotoxicity against human LO2 cells assessed as reduction in cell viability after 48 hrs by MTT assay; format: cell-based; details: L02, 48 h

Structure (SMILES)	pIC50 (SMMC-7721)	pIC50 (HepG2)	pIC50 (L02)
COc1cc([C@@H]2c3cc4c(cc3[C@@H](O[C@@H]3O[C@@H]5CO[C@@H](C)O[C@H]5[C@H](O)[C@H]3O)[C@H]3COC(=O)[C@H]23)OCO4)cc(OC)c1O [ETOPOSIDE]	6.82	6.08	5.42
COC(=O)[C@]1(C)CCC[C@]2(C)c3cc(Br)c(N)c(N)c3CC[C@@H]12	< 4.30	< 4.30	< 4.30
CCN(CC)c1ccc(/C=N/c2nc3c(Br)cc4c(c3[nH]2)CC[C@H]2[C@](C)(C(=O)OC)CCC[C@]42C)c(O)c1	6.06	6.80	5.54
COC(=O)[C@]1(C)CCC[C@]2(C)c3cc(Br)c([N+](=O)[O-])c([N+](=O)[O-])c3CC[C@@H]12	4.53	4.47	< 4.30
COC(=O)[C@]1(C)CCC[C@]2(C)c3cc(Br)c4nc(/N=C/c5cc(Cl)ccc5O)[nH]c4c3CC[C@@H]12	5.66	5.74	5.18
COC(=O)[C@]1(C)CCC[C@]2(C)c3cc(Br)c4nc(/N=C/c5cc(Br)ccc5O)[nH]c4c3CC[C@@H]12	5.55	6.14	5.14
COC(=O)[C@]1(C)CCC[C@]2(C)c3cc(Br)c4nc(NCc5cc(Br)ccc5O)[nH]c4c3CC[C@@H]12	5.40	5.38	4.67
COC(=O)[C@]1(C)CCC[C@]2(C)c3cc(Br)c4nc(NCc5cccc(F)c5O)[nH]c4c3CC[C@@H]12	5.37	5.78	4.90
COC(=O)[C@]1(C)CCC[C@]2(C)c3cc(Br)c4nc(NCc5ccccc5O)[nH]c4c3CC[C@@H]12	5.50	4.65	< 4.30
COC(=O)[C@]1(C)CCC[C@]2(C)c3cc(Br)c4nc(NCc5cc(Cl)ccc5O)[nH]c4c3CC[C@@H]12	5.50	4.93	4.57
COC(=O)[C@]1(C)CCC[C@]2(C)c3cc(Br)c4nc(NCc5ccc6ccccc6c5O)[nH]c4c3CC[C@@H]12	4.65	4.67	< 4.30
COC(=O)[C@]1(C)CCC[C@]2(C)c3cc(Br)c4nc(/N=C/c5ccccc5O)[nH]c4c3CC[C@@H]12	5.61	6.68	5.20
CCN(CC)c1ccc(CNc2nc3c(Br)cc4c(c3[nH]2)CC[C@H]2[C@](C)(C(=O)OC)CCC[C@]42C)c(O)c1	5.42	5.47	4.91
